In patent publication US7947307B2, “Methods and compositions for imaging” (Mount Sinai School of Medicine of New York University, priority 2004, dated 2011):
Like-named read-outs stand apart in the source and are kept apart here.

Experiments:
[1] = cited from earlier work
[2] = cited from earlier work; remark: listed apart in the source
[3] = cited from earlier work; remark: listed apart in the source
[4] = test system: elicited peritoneal macrophages isolated from apoE-/- mice; test: Cholesterol efflux assay in cholesterol-loaded elicited peritoneal macrophages; format: cell-based, mouse; details: 1.5 μM
Description: Cholesterol efflux assays. Human apo A-I was prepared as described before (25). Low density lipoprotein (LDL, 1.019<density<1.063 g/mL) and subfraction 3 of high density lipoprotein (HDL3, 1.125<density<1.21 g/mL) were isolated by sequential ultracentrifugation of human plasma. Lipoproteins were extensively dialyzed against phosphate buffered saline (PBS) and protein content measured with a CBQCA Protein Quantitation Kit (Molecular Probes, Eugene, Oreg.). The quality and purity of the lipoprotein preparations was confirmed by SDS-PAGE by the identification of appropriate apolipoproteins. Acetylated LDL (AcLDL) was prepared according to (26). Dulbeco's Modified Eagle medium (DMEM), L-glutamine, Penicillin-Streptomycin solutions, fetal bovine serum (FBS), and PBS were purchased from the Invitrogen Corporation (Carlsbad, Calif.). […]
For measurement of cholesterol efflux, aliquots of the media were collected at 6 and 18 h, and tritium cpm measured by scintillation counting. […] Free and esterified cholesterol content was measured prior to and after efflux under the various treatment conditions. After extraction of lipids, cells were lysed with 0.2 N NaOH and protein content determined by Lowry assay. Total cholesterol and free cholesterol were determined by using kits from Roche Applied Science. Cholesteryl ester content was determined by subtracting free cholesterol from total cholesterol.

[5] = mouse; cited from earlier work
[6] = concentration 1M (values in parentheses)

Row | Compound | r1, 0.5 T 37° C. [1] | Osmolality ([2]; concentration 0.01M) | Viscosity ([3]; concentration 0.01M) | Osmolality ([2]; concentration 0.5M) | Viscosity ([3]; concentration 0.5M) | Osmolality [2, 6] | Viscosity [3, 6] | cholesterol efflux to HDL ([4]; [3H]cholesterol-AcLDL loaded macrophages with F-1394, acceptor HDL3 50 μg/mL) | cholesterol efflux to apoA-I ([4]; [3H]cholesterol-AcLDL loaded macrophages with F-1394, acceptor apoA-I 50 μg/mL) | t1/2 in the circulation [5]
1 | Cc1[nH+]cc(COP(=O)([O-])[O-])c(CN(CCN(CC(=O)[O-])Cc2c(COP(=O)([O-])O)c[nH+]c(C)c2O)CC(=O)[O-])c1O.[Mn].[Na+].[Na+].[Na+] [Mangafodipir, Mn-DPDP] | 1.9 mM⁻¹ s⁻¹ | 0.29 osmol/kg | 0.7 cP | – | – | – | – | – | – | –
2 | Gd-DTPA-BMEA [Gadoversetamide] | 4.7 mM⁻¹ s⁻¹ | – | – | 1.11 osmol/kg | 2.0 cP | – | – | – | – | –
3 | Gd-HPDO3A [Gadoteridol] | 3.7 mM⁻¹ s⁻¹ | – | – | 0.63 osmol/kg | 1.3 cP | (1.91) osmol/kg | (3.9) cP | – | – | –
4 | O=C([O-])CN1CCN(CC(=O)[O-])CCN([C@H](CO)[C@H](O)CO)CCN(CC(=O)[O-])CC1.[Gd+3] (racemic) [Gadobutrol, Gd-DO3A-butrol] | 3.6 mM⁻¹ s⁻¹ | – | – | 0.57 osmol/kg | 1.4 cP | (1.39) osmol/kg | (3.7) cP | – | – | –
5 | CNC(=O)CN(CCN(CCN(CC(=O)[O-])CC(=O)NC)CC(=O)[O-])CC(=O)[O-].[Gd+3] [Gadodiamide, Gd-DTPA-BMA] | 3.9 mM⁻¹ s⁻¹ | – | – | 0.79 osmol/kg | 1.4 cP | (1.90) osmol/kg | (3.9) cP | – | – | –
6 | CNC[C@H](O)[C@@H](O)[C@H](O)[C@H](O)CO.CNC[C@H](O)[C@@H](O)[C@H](O)[C@H](O)CO.O=C([O-])CN(CCN(CC(=O)[O-])CC(=O)O)CCN(CC(=O)O)C(COCc1ccccc1)C(=O)[O-].[Gd+3] (centres unmarked) [Gadobenate, Gd-BOPTA] | 4.4 mM⁻¹ s⁻¹ | – | – | 1.97 osmol/kg | 5.3 cP | – | – | – | – | –
7 | O=C(Nc1ccccc1)c1cc([N+](=O)[O-])ccc1Cl [GW9662] | – | – | – | – | – | – | – | did not affect | did not affect | –
8 | HDL-apoAI: apolipoprotein AI of HDL | – | – | – | – | – | – | – | – | – | roughly 10 h
9 | O=C([O-])CN1CCN(CC(=O)[O-])CCN(CC(=O)[O-])CCN(CC(=O)[O-])CC1.[Gd+3] [Gadoterate, Gd-DOTA] | 3.6 mM⁻¹ s⁻¹ | – | – | 1.35 osmol/kg | 2.0 cP | (4.02) osmol/kg | (11.3) cP | – | – | –
10 | CNC[C@H](O)[C@@H](O)[C@H](O)[C@H](O)CO.CNC[C@H](O)[C@@H](O)[C@H](O)[C@H](O)CO.O=C([O-])CN(CCN(CC(=O)[O-])CC(=O)O)CCN(CC(=O)[O-])CC(=O)O.[Gd+3] [Gadopenetate, Gd-DTPA] | 3.8 mM⁻¹ s⁻¹ | – | – | 1.96 osmol/kg | 2.9 cP | – | – | – | – | –
